US20250282794A1 (CURADEV PHARMA LTD, priority 2022, published 2025)

These compounds were tested against recombinant full length HPK-1 enzyme (Homo sapiens (Human), UniProt Q92918) (assay: HPK-1 biochemical enzyme assay (ADP-Glo kinase inhibition)). Details: recombinant full length HPK-1 6.8 nM, 10 μM ATP, 12.5 μM MBP, 30 mins at 25° C.
Outline: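 ADP-Glo readout of ADP formed after a 30 min, 25° C. reaction of 6.8 nM full-length HPK-1 with swine myelin basic protein (12.5 μM) and ATP (10 μM) in Tris pH 7.4 buffer with MgCl2, DTT and BSA. Ten compound concentrations tested; percent inhibition set against vehicle (0%) and no-enzyme (100%) controls gave IC50.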

Sequence of recombinant full length HPK-1 enzyme (Q92918 whole entry, species assumed): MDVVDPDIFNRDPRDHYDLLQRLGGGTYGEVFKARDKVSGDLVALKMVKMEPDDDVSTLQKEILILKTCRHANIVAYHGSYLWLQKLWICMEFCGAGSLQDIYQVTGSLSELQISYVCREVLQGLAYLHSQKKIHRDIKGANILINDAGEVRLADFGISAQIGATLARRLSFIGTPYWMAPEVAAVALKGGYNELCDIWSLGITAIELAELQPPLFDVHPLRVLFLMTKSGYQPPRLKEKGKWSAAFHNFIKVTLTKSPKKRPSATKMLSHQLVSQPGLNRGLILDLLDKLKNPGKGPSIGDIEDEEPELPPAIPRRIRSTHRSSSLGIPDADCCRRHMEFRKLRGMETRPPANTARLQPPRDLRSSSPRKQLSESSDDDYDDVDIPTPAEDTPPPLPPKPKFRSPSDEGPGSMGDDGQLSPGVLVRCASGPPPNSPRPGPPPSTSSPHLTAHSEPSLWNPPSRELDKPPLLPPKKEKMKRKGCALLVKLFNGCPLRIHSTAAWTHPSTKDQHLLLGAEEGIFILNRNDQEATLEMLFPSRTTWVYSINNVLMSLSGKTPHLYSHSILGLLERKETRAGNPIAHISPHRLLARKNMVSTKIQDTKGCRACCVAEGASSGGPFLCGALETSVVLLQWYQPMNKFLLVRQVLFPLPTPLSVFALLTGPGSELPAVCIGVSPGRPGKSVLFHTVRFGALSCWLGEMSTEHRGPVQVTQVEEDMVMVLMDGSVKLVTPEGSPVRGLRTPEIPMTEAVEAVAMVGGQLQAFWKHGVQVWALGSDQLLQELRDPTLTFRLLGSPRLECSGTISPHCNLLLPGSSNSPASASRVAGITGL

`Cc1c(Nc2cc[nH]c(=O)c2C(=O)Nc2ccc(N3CCN(CCCS(C)(=O)=O)CC3)cc2)cnc2c1NCCO2` [Example 225, 4-((8-methyl-2,3-dihydro-1H-pyrido[2,3-b][1,4]oxazin-7-yl)amino)-N-(4-(4-(3-(methylsulfonyl)propyl)piperazin-1-yl)phenyl)-2-oxo-1,2-dihydropyridine-3-carboxamide] was tested. Which IC50 did it give?
Its IC50 is at most 10 nM.

Which IC50 does the source give for `Cc1c(Nc2cc[nH]c(=O)c2C(=O)Nc2ccc(N3CCC(O)(CN(C)C)CC3)cc2)cnc2c1NCCO2` [Example 375, N-(4-(4-((dimethylamino)methyl)-4-hydroxypiperidin-1-yl)phenyl)-4-((8-methyl-2,3-dihydro-1H-pyrido[2,3-b][1,4]oxazin-7-yl)amino)-2-oxo-1,2-dihydropyridine-3-carboxamide] here?
The IC50 was at most 10 nM.

With `CCCN1CCN(c2ccc(NC(=O)c3c(Nc4cnc5c(c4C)NCCO5)cc[nH]c3=O)cc2)CC1` [Example 399, 4-((8-methyl-2,3-dihydro-1H-pyrido[2,3-b][1,4]oxazin-7-yl)amino)-2-oxo-N-(4-(4-propylpiperazin-1-yl)phenyl)-1,2-dihydropyridine-3-carboxamide] as the compound, how does the IC50 read?
Its IC50 is at most 10 nM.

`Cc1cc(NC(=O)c2c(Nc3cnc4c(c3C)NCC(C)O4)cc[nH]c2=O)ccc1N1CCN(C)CC1` (centres unmarked) [Example 200, 4-((3,8-dimethyl-2,3-dihydro-1H-pyrido[2,3-b][1,4]oxazin-7-yl)amino)-N-(3-methyl-4-(4-methylpiperazin-1-yl)phenyl)-2-oxo-1,2-dihydropyridine-3-carboxamide] was tested. Which IC50 did it give?
The IC50 was at most 10 nM.

Which IC50 does the source give for `Cc1c(Nc2cc[nH]c(=O)c2C(=O)Nc2ccc3nc[nH]c3c2)cnc2c1NCCO2` [Example 257, N-(1H-benzo[d]imidazol-6-yl)-4-((8-methyl-2,3-dihydro-1H-pyrido[2,3-b][1,4]oxazin-7-yl)amino)-2-oxo-1,2-dihydropyridine-3-carboxamide] here?
Its IC50 is 10 to 100 nM.

Which IC50 does the source give for `Cc1ccc(N2CCN(c3ccc(NC(=O)c4c(Nc5cnc6c(c5C)NCCO6)cc[nH]c4=O)cc3)CC2)cn1` [Example 363, 4-((8-Methyl-2,3-dihydro-1H-pyrido[2,3-b][1,4]oxazin-7-yl)amino)-N-(4-(4-(6-methylpyridin-3-yl)piperazin-1-yl)phenyl)-2-oxo-1,2-dihydropyridine-3-carboxamide] here?
Its IC50 is 10 to 100 nM.

With `Cc1c(Nc2cc[nH]c(=O)c2C(=O)Nc2ccc(N3CCN(C(C)C)CC3)cc2)cnc2c1NCC(C)O2` (centres unmarked) [Example 169, 4-((3,8-dimethyl-2,3-dihydro-1H-pyrido[2,3-b][1,4]oxazin-7-yl)amino)-N-(4-(4-isopropylpiperazin-1-yl)phenyl)-2-oxo-1,2-dihydropyridine-3-carboxamide] as the compound, how does the IC50 read?
The IC50 was at most 10 nM.

How did the IC50 turn out when `COCCN1CCC(c2ccc(NC(=O)c3c(Nc4cnc5c(c4C)NCCO5)cc[nH]c3=O)cc2F)CC1` [Example 276, N-(3-fluoro-4-(1-(2-methoxyethyl)piperidin-4-yl)phenyl)-4-((8-methyl-2,3-dihydro-1H-pyrido[2,3-b][1,4]oxazin-7-yl)amino)-2-oxo-1,2-dihydropyridine-3-carboxamide] was run?
The IC50 was at most 10 nM.

With `COCCN1CCN(c2ccc(NC(=O)c3c(Nc4cnc5c(c4C)NCC(C)O5)cc[nH]c3=O)cc2F)CC1` (centres unmarked) [Example 185, 4-((3,8-dimethyl-2,3-dihydro-1H-pyrido[2,3-b][1,4]oxazin-7-yl)amino)-N-(3-fluoro-4-(4-(2-methoxyethyl)piperazin-1-yl)phenyl)-2-oxo-1,2-dihydropyridine-3-carboxamide] as the compound, how does the IC50 read?
Its IC50 is at most 10 nM.

How did the IC50 turn out when `Cc1c(Nc2cc[nH]c(=O)c2C(=O)Nc2ccc(N3CCN(C)CC3)c(N)c2)cnc2c1NCCO2` [Example 263, N-(3-Amino-4-(4-methylpiperazin-1-yl)phenyl)-4-((8-methyl-2,3-dihydro-1H-pyrido[2,3-b][1,4]oxazin-7-yl)amino)-2-oxo-1,2-dihydropyridine-3-carboxamide] was run?
Its IC50 is at most 10 nM.

`Cc1c(Nc2nc[nH]c(=O)c2C(=O)Nc2ccc(N3CCN(C)CC3)cc2)cnc2c1NCCO2` [Example 98, 4-((8-Methyl-2,3-dihydro-1H-pyrido[2,3-b][1,4]oxazin-7-yl)amino)-N-(4-(4-methylpiperazin-1-yl)phenyl)-6-oxo-1,6-dihydropyrimidine-5-carboxamide] was tested. Which IC50 did it give?
The IC50 was 10 to 100 nM.

`Cc1c(Nc2cc[nH]c(=O)c2C(=O)Nc2ccc(N3CCN(C(=O)[C@@H]4C[C@@H]4F)CC3)cc2)cnc2c1NCCO2` [Example 293, N-(4-(4-((1S,2S)-2-fluorocyclopropane-1-carbonyl)piperazin-1-yl)phenyl)-4-((8-methyl-2,3-dihydro-1H-pyrido[2,3-b][1,4]oxazin-7-yl)amino)-2-oxo-1,2-dihydropyridine-3-carboxamide] was tested. Which IC50 did it give?
Its IC50 is at most 10 nM.

For `Cc1c(Nc2cc[nH]c(=O)c2C(=O)Nc2ccc3c(c2)C(=O)NCC3)cnc2c1NCCO2` [Example 260, 4-((8-methyl-2,3-dihydro-1H-pyrido[2,3-b][1,4]oxazin-7-yl)amino)-2-oxo-N-(1-oxo-1,2,3,4-tetrahydroisoquinolin-7-yl)-1,2-dihydropyridine-3-carboxamide], which IC50 is on record?
The IC50 was 100 to 1000 nM.

For `Cc1c(Nc2cc[nH]c(=O)c2C(=O)Nc2ccc(N3CCN(c4ccn(C)n4)CC3)cc2)cnc2c1NCCO2` [Example 336, N-(4-(4-(1-methyl-1H-pyrazol-3-yl)piperazin-1-yl)phenyl)-4-((8-methyl-2,3-dihydro-1H-pyrido[2,3-b][1,4]oxazin-7-yl)amino)-2-oxo-1,2-dihydropyridine-3-carboxamide], which IC50 is on record?
The IC50 was at most 10 nM.

For `Cc1c(Nc2cc[nH]c(=O)c2C(=O)Nc2ccc(N3CCN(C(=O)C(C)C)CC3)cc2)cnc2c1NCC(C)O2` (centres unmarked) [Example 335, 4-((3,8-dimethyl-2,3-dihydro-1H-pyrido[2,3-b][1,4]oxazin-7-yl)amino)-N-(4-(4-isobutyrylpiperazin-1-yl)phenyl)-2-oxo-1,2-dihydropyridine-3-carboxamide], which IC50 is on record?
Its IC50 is 10 to 100 nM.

`Cc1c(Nc2cc[nH]c(=O)c2C(=O)Nc2ccc(N3CCN(C(=O)N(C)C)CC3)cc2)cnc2c1NCC(C)O2` (centres unmarked) [Example 182, 4-(4-(4-((3,8-dimethyl-2,3-dihydro-1H-pyrido[2,3-b][1,4]oxazin-7-yl)amino)-2-oxo-1,2-dihydropyridine-3-carboxamido)phenyl)-N,N-dimethylpiperazine-1-carboxamide] was tested. Which IC50 did it give?
Its IC50 is at most 10 nM.

How did the IC50 turn out when `Cc1c(Nc2cc[nH]c(=O)c2C(=O)Nc2ccc(-c3cn[nH]c3)cc2)cnc2c1NCCO2` [Example 144, N-(4-(1H-pyrazol-4-yl)phenyl)-4-((8-methyl-2,3-dihydro-1H-pyrido[2,3-b][1,4]oxazin-7-yl)amino)-2-oxo-1,2-dihydropyridine-3-carboxamide] was run?
The IC50 was 10 to 100 nM.

How did the IC50 turn out when `Cc1c(Nc2cc[nH]c(=O)c2C(=O)Nc2ccc(N3CCN(C(=O)C4(C)CCC4)CC3)cc2)cnc2c1NCCO2` [Example 306, 4-((8-methyl-2,3-dihydro-1H-pyrido[2,3-b][1,4]oxazin-7-yl)amino)-N-(4-(4-(1-methylcyclobutane-1-carbonyl)piperazin-1-yl)phenyl)-2-oxo-1,2-dihydropyridine-3-carboxamide] was run?
The IC50 was at most 10 nM.

How did the IC50 turn out when `Cc1c(Nc2cc[nH]c(=O)c2C(=O)Nc2ccc(N3CCN(CC(C)(C)O)CC3)cc2)cnc2c1NCCO2` [Example 282, N-(4-(4-(2-hydroxy-2-methylpropyl)piperazin-1-yl)phenyl)-4-((8-methyl-2,3-dihydro-1H-pyrido[2,3-b][1,4]oxazin-7-yl)amino)-2-oxo-1,2-dihydropyridine-3-carboxamide] was run?
The IC50 was at most 10 nM.

Which IC50 does the source give for `Cc1c(Nc2cc[nH]c(=O)c2C(=O)Nc2ccc(N3CCN(C(C)C)CC3)c(F)c2)cnc2c1NCCO2` [Example 134, N-(3-fluoro-4-(4-isopropylpiperazin-1-yl)phenyl)-4-((8-methyl-2,3-dihydro-1H-pyrido[2,3-b][1,4]oxazin-7-yl)amino)-2-oxo-1,2-dihydropyridine-3-carboxamide] here?
The IC50 was at most 10 nM.

Which IC50 does the source give for `Cc1c(Nc2cc[nH]c(=O)c2C(=O)Nc2ccc(N3CCN(C(=O)C4CC4C)CC3)cc2)cnc2c1NCCO2` (centres unmarked) [Example 305, 4-((8-methyl-2,3-dihydro-1H-pyrido[2,3-b][1,4]oxazin-7-yl)amino)-N-(4-(4-(2-methylcyclopropane-1-carbonyl)piperazin-1-yl)phenyl)-2-oxo-1,2-dihydropyridine-3-carboxamide] here?
Its IC50 is at most 10 nM.

Which IC50 does the source give for `Cc1c(Nc2cc[nH]c(=O)c2C(=O)Nc2ccc3c(c2)NC(=O)CC3)cnc2c1NCCO2` [Example 258, 4-((8-methyl-2,3-dihydro-1H-pyrido[2,3-b][1,4]oxazin-7-yl)amino)-2-oxo-N-(2-oxo-1,2,3,4-tetrahydroquinolin-7-yl)-1,2-dihydropyridine-3-carboxamide] here?
Its IC50 is 10 to 100 nM.

`Cc1c(Nc2cc[nH]c(=O)c2C(=O)Nc2ccc(N3CCN(C)CC3)c(CO)c2)cnc2c1NCC(C)O2` (centres unmarked) [Example 204, 4-((3,8-dimethyl-2,3-dihydro-1H-pyrido[2,3-b][1,4]oxazin-7-yl)amino)-N-(3-(hydroxymethyl)-4-(4-methylpiperazin-1-yl)phenyl)-2-oxo-1,2-dihydropyridine-3-carboxamide] was tested. Which IC50 did it give?
Its IC50 is 10 to 100 nM.

Which IC50 does the source give for `Cc1c(Nc2cc[nH]c(=O)c2C(=O)Nc2ccc(N3CCN(CCO)CC3)cc2)cnc2c1NCCO2` [Example 105, N-(4-(4-(2-hydroxyethyl)piperazin-1-yl)phenyl)-4-((8-methyl-2,3-dihydro-1H-pyrido[2,3-b][1,4]oxazin-7-yl)amino)-2-oxo-1,2-dihydropyridine-3-carboxamide] here?
Its IC50 is at most 10 nM.

Which IC50 does the source give for `Cc1c(Nc2cc[nH]c(=O)c2C(=O)Nc2ccc(-c3ccncc3)cc2)cnc2c1NCCO2` [Example 152, 4-((8-methyl-2,3-dihydro-1H-pyrido[2,3-b][1,4]oxazin-7-yl)amino)-2-oxo-N-(4-(pyridin-4-yl)phenyl)-1,2-dihydropyridine-3-carboxamide] here?
The IC50 was 10 to 100 nM.

With `Cc1c(Nc2cc[nH]c(=O)c2C(=O)Nc2ccc(N3CC4CCC(C3)N4C)cc2)cnc2c1NCC(C)O2` (centres unmarked) [Example 181, 4-((3,8-dimethyl-2,3-dihydro-1H-pyrido[2,3-b][1,4]oxazin-7-yl)amino)-N-(4-(8-methyl-3,8-diazabicyclo[3.2.1]octan-3-yl)phenyl)-2-oxo-1,2-dihydropyridine-3-carboxamide] as the compound, how does the IC50 read?
The IC50 was 10 to 100 nM.
